Reference: article PMC7955127, “Preclinical small molecule WEHI-7326 overcomes drug resistance and elicits response in patient-derived xenograft models of human treatment-refractory tumors” (Cell Death & Disease, 2021)

Key:
CEM dEpoB30 = experiment: Cell growth inhibition assay, CEM dEpoB30; format: cell-based; conditions: Homo sapiens; CEM dEpoB30, leukemia (taxane resistant, β-tubulin mutation); 72 h, Alamar Blue; mean of 3 ± SEM; read-out: IC50 (inhibition of cellular proliferation)
Experimental: Cells were plated at a density of between 500 to 5000 cells per well for adherent cell lines depending on doubling time, and 15,000 cells per well for lymphoblastic leukemia cell lines, in a 96-well plate in 200 μl of growth media. Plates were incubated overnight at 37 °C before adding the inhibitors. Inhibitors were serially diluted from the stock solutions in complete medium and added to the cells. […] Cell viability was assessed by the AlamarBlue (Invitrogen) or CellTiterBlue/Glo (Promega) method according to manufacturer’s instructions. The curve fits and IC50 values were generated in PRISM (GraphPad, San Diego, CA).
(§1) Parental human lymphoblastic leukemia cells (CEM) and their drug resistant derivatives (dEpoB30 and dEpoB300) were cultured in the presence of increasing amounts of WEHI-7326, paclitaxel or epothilone B. Cell survival was determined as described in Experimental Procedures. Shown are mean of 3 experiments +/- SEM. Dose response curves were fitted in PRISM using non-linear regression (4 parameter logistic) to calculate IC50 values.

CEM dEpoB300 = experiment: Cell growth inhibition assay, CEM dEpoB300; format: cell-based; conditions: Homo sapiens; CEM dEpoB300, leukemia (taxane resistant, β-tubulin mutation); 72 h, Alamar Blue; mean of 3 ± SEM; read-out: IC50 (inhibition of cellular proliferation)
Experimental: Cells were plated at a density of between 500 to 5000 cells per well for adherent cell lines depending on doubling time, and 15,000 cells per well for lymphoblastic leukemia cell lines, in a 96-well plate in 200 μl of growth media. Plates were incubated overnight at 37 °C before adding the inhibitors. Inhibitors were serially diluted from the stock solutions in complete medium and added to the cells. Incubation in the presence of inhibitors was continued for […]. Cell viability was assessed by the AlamarBlue (Invitrogen) or CellTiterBlue/Glo (Promega) method according to manufacturer’s instructions. The curve fits and IC50 values were generated in PRISM (GraphPad, San Diego, CA).
as §1

[1] = system: LoVo (colon carcinoma) xenograft; experiment: LoVo tumor xenograft in nude mice; format: in vivo, Balb/c nude mice
Experimental: LoVo (4 × 10^6), PC3 (3 × 10^6) or MDA-MB-231 LNA DRE (10^6) cells were collected by trypsination and injected with 50 μl 1:1 PBS:Matrigel (v/v) subcutaneously on the right flank of 18 female (LoVo), 40 male (PC3) or into 4th mammary fat pad of 40 female (MDA231) Balb/c nude mice. Tumor growth was monitored and average tumor size at commencement of dosing was 100 mm^3. Mice were randomized into 3 arms of each 5 (LoVo), 10 (PC3) or 12 (MDA23) mice respectively and treatment with vehicle (saline), WEHI-7326 (biweekly) or docetaxel (weekly) was administered via tail vein injection. Tumor volumes were measured at least twice weekly with calipers and the experiments were terminated when tumors in the control group started exceeding 1500 mm^3. For LoVo, both vehicle and 25 mg/kg WEHI-7326 groups were harvested 24 h, but 20 mg/kg WEHI-7326 group harvested 1 h post final dose. For PC3, docetaxel group was not harvested in an attempt to grow out resistant tumors.

34931 HGSOC PDX = experiment: HGSOC post-chemo PDX model 34931; format: in vivo, NSG mice; conditions: 34931 post-taxane, cisplatin-refractory PDX; 20 mg/kg i.v. twice a week, 6 weeks
Experimental: Two to three mm ovarian tumor fragments were subcutaneously engrafted in the left flank of NSG mice and monitored by physical palpation for tumor growth and engraftment. Engrafted tumors were measured twice a week using digital Vernier calipers and maximum tumor diameter + perpendicular tumor length were digitally recorded into the Study Director software (v 3.0/4.0 StudyLog). Tumor volume was calculated automatically (tumor volume (mm^3) = 0.5236 x [larger diameter (mm) x smaller diameter (mm)^2]). Mice were randomized to treatment once their tumor volume reach 180–300 mm^3 and tumor measurements were performed twice a week up to 120 days or when the tumor volume reaches 700 mm^3.
Time to progressive disease (PD): Defined as the time (in days) from beginning of treatment to an increase in average tumor volume of >20% from the nadir (taken as the smallest average tumor volume recorded since treatment started or 200 mm^3 if nadir was <200 mm^3 as lesions smaller than this are difficult to measure with accuracy). Median time to harvest (TTH): Defined as the time (in days) from the beginning of treatment to day of harvest at 700 mm^3 and the median TTH was calculated and plotted using Kaplan-Meier curves. Based on ref. [27]. […]

[2] = Measured physicochemical and solubility data
Text: a Measured physicochemical and solubility data for WEHI-7326. […] Microsomal-predicted EH values are included.

[3] = system: LIM2537 (colon carcinoma) xenograft; experiment: LIM2537 tumor xenograft in nude mice; format: in vivo, BALB/c nude mice; conditions: i.p. three times weekly
Experimental: Tumor cell lines LIM2537, U87MGΔ2–7EGFR or H1437 were collected by trypsinization, counted and injected at 5 × 10^6 cells/ site subcutaneously on both flanks of BALB/c nude mice. Treatment with vehicle control or WEHI-7326 at given dose was initiated after 5 days. Drug or vehicle (100 μl) was injected intraperitoneally three times weekly. Control group and treatment group consisted of 8 mice each. Tumors were measured twice weekly with calipers. Tumor volumes were estimated using the modified ellipsoid formula V = 1/2 (length × width^2). The experiments were terminated when tumors in the control group started ulcerating or exceeded 17 mm in length, in line with the LICR/DoS Animal Ethics Committee guidelines (11/05 A).

Structure (SMILES): COc1ccc(CNc2nc(NCc3ccc(CN)cc3)nc(NN3CC(=O)NC3=O)n2)cc1 [WEHI-7326]
- IC50 (CEM dEpoB30): 1.67 ± 0.04 nM
- IC50 (CEM dEpoB300): 6.51 ± 0.08 nM
- Body weight loss ([1]; LoVo xenograft mice, 25 mg/kg, 9 doses in total): ~ 6%
- Tumor growth inhibition ([1]; LoVo xenograft, 25 mg/kg biweekly i.v.): 60%
- Tumor response (34931 HGSOC PDX): ineffective
- Lipophilicity [2]: very low
- Solubility in common dosing vehicles ([2]; 5% [w/v] glucose, 0.9% [w/v] saline and isotonic acetate buffer pH 5): soluble
- Stability in dosing vehicles ([2]; storage in common dosing vehicles): negligible degradation
- Tumor growth [3]: effective in reducing tumor growth
